Test results reported in ChEMBL document CHEMBL1201862, “PubChem BioAssay data set” (2004).
Calls of active or inactive are those of the source. Cut-off read from the data, not from the text of the source, for most assays here: actives have a measured EC50 and inactives only a lower limit.

Legend:
[1] = NIH-3T3 fibroblast cytotoxicity, dose response, cytotoxicity control, cell-based, fluorescence, Alamar Blue, secondary assay (AID 2327); format: functional;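 note: NIH-3T3 mouse fibroblasts cultured with fluconazole at 8 µg/mL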
[2] = tested on: Streptococcus sp. 'group A'; assay: growth inhibition of control SK(-) GAS strain, dose response, counter-screen for streptokinase expression inhibitor project, luminescence, kanamycin, BacTiterGlo, confirmation (AID 1900); format: functional, organism-based
Streptokinase A = biological target: T1, Streptokinase A (Streptococcus pyogenes serotype M1, UniProt P10520); assay: S. pyogenes streptokinase expression inhibitors, potency, dose response, plasminogen activation absorbance, OD405 (AID 1914); format: functional, Streptococcus pyogenes M1 GAS;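 note: secreted streptokinase activity via plasminogen activation per viability signal from cell pellet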
T1 sequence (P10520 whole entry): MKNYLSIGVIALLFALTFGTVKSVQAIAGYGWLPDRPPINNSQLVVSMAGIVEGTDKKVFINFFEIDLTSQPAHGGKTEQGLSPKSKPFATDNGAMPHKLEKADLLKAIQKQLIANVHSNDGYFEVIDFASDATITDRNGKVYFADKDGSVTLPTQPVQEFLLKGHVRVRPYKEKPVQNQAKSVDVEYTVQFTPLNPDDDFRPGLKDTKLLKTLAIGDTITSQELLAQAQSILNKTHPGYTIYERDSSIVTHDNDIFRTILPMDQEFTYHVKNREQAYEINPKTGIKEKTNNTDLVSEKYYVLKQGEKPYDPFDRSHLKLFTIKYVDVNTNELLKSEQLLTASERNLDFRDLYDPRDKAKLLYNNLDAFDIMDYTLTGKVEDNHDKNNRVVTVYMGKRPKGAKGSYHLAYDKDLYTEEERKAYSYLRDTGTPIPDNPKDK

[3] = C. albicans growth with fluconazole, confirmation, fluorescence, retest (AID 2467); format: functional, cell-based
NS3 = NS3 (Hepatitis C virus, UniProt A3EZJ3); assay: PubChem AID 2173; parameters: species or system Hepacivirus hominis
Streptococcus = assay: Group A Streptococcus viability loss, dose response, counter-screen for streptokinase expression inhibitor project, luminescence, BacTiterGlo (AID 1915); format: functional, organism-based;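 note: potency for reduction of bacterial viability or growth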
[4] = biological target: Heat shock protein HSP 90-alpha (Homo sapiens, UniProt P07900); format: functional, organism-based
[5] = inhibitors of intracellular T. cruzi replication, confirmation, NIH3T3 host cells, beta-gal luminescence (AID 2044); format: functional, cell-based;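 note: intracellular parasites grown in NIH/3T3 mouse fibroblasts as host cells; luminescent beta-galactosidase reporter signal from transgenic T. cruzi replicating inside host cells; inhibitors lower the luminescence signal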
[6] = cytotoxicity toward NIH3T3 fibroblasts, dose response, counter-screen, cell-based, ATP luminescence, mouse fibroblasts (AID 2010); format: functional;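 note: cells exposed to compound for about 90 hours before reading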
[7] = biological target: Voltage-dependent T-type calcium channel subunit alpha-1H (Homo sapiens, UniProt O95180); format: functional;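 note: channel activity triggered by adding a high calcium stimulation buffer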
Leucine aminopeptidase = biological target: T2, Leucine aminopeptidase (Plasmodium falciparum 3D7, UniProt Q8IL11); assay: P. falciparum M17LAP inhibitors, primary screen, biochemical, fluorogenic H-Leu-NHMec substrate, 1536-well (AID 1619); format: functional
T2 sequence (Q8IL11 whole entry): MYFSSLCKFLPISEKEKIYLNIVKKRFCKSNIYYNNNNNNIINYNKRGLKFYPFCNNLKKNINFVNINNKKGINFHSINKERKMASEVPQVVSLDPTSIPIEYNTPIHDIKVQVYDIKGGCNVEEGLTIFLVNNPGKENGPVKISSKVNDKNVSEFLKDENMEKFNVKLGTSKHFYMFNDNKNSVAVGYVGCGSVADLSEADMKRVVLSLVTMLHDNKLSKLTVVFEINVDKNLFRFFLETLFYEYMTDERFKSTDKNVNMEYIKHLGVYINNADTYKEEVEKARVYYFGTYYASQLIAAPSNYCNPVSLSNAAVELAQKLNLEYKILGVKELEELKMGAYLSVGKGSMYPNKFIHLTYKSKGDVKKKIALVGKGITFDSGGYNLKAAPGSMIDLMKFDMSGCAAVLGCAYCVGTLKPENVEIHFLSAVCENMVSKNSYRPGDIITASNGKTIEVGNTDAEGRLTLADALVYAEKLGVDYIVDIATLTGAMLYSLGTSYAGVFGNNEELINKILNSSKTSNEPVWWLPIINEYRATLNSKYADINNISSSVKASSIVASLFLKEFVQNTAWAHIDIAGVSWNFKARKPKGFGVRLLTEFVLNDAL

[8] = inhibitors of Vif binding to APOBEC3G peptide, primary screen, biochemical, TR-FRET, GST-Vif 1-94, biotin-A3G peptide, dose response retest (AID 1117319); format: functional;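 note: TR-FRET signal of purified GST-Vif binding a biotinylated A3G peptide; inhibitors lower the FRET signal by blocking Vif and A3G binding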
Escherichia coli = assay: microbe, parasite or virus in culture
[9] = inhibitors of firefly luciferase expression or activity, dose response, H4 neuroglioma cells, luminescence (AID 1990); format: functional, cell-based
[10] = biological target: T3, Luciferin 4-monooxygenase (Photinus pyralis, UniProt P08659); assay: Counter Screen for Luciferase-based Assay Positives. [Related pubchem assays: 620, 618, 411 ]
[11] = inhibitors of SNCA 5'UTR-driven reporter translation, confirmation, H4 neuroglioma cells, luminescence (AID 1988); format: functional, cell-based
HT-1080 = assay: cytotoxicity in HT1080 fibrosarcoma cells, cell-based, fluorescence readout (AID 620); format: functional; conditions: Homo sapiens
[12] = cytotoxicity in HEK-293T cells, dose response, cytotoxicity control for BCR NF-kB inhibitor project, luminescence, B-cell screen hits (AID 489021); format: functional, cell-based;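 note: HEK-293T cells carrying an NF-kB luciferase reporter; cells exposed to compound for about 14 hours before viability readout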
[13] = A Cell Based Secondary Assay To Explore Cytotoxicity of Compounds that Sensitize Mycobacterium Tuberculosis to Beta-Lactam Antibiotics.; format: functional
BJ [14] = assay: cytotoxicity toward BJ-TERT fibroblasts, dose response, cell-based, RAS-independent, luminescence (AID 1933); format: functional; conditions: Homo sapiens
BJ [15] = assay: cells; format: functional, cell-based; conditions: Homo sapiens
[16] = biological target: T3, Luciferin 4-monooxygenase; assay: firefly luciferase enzyme inhibitors, dose response, biochemical, luminescence (AID 1891)
[17] = Luminescence Cell-Based Dose Confirmation HTS to Identify Inhibitors of Platelet Dense Granule Release. [Related pubchem assays: 1663 (Primary HTS), 1678 (Summary of Project)]; format: functional
BJ [18] = assay: cytotoxicity toward BJ-TERT-LT-ST fibroblasts, dose response, cell-based, RAS-independent, luminescence (AID 1935); format: functional; conditions: Homo sapiens;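 note: BJ fibroblasts immortalized with TERT plus LT and ST oncogenes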
[19] = cytotoxicity toward DRD oncogenic fibroblasts, dose response, cell-based, non-viral oncogenic, luminescence (AID 1934); format: functional; conditions: Homo sapiens
[20] = cytotoxicity in HEK-293T cells, dose response, cytotoxicity control for TCR NF-kB inhibitor project, luminescence, T-cell screen hits (AID 489026); format: functional, cell-based;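 note: cells exposed to compound about 14 hours before the viability readout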
[21] = Shn3 3'UTR reporter inhibitors, dose response, cell-based, Clone20 osteoblasts, firefly luciferase, cherry-picked (AID 624132); format: functional;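 note: firefly luciferase luminescence from reporter carrying the Shn3 3'UTR in osteoblasts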
[22] = HepG2 cell cytotoxicity, dose response, cytotoxicity control for Shn3 inhibitor project, CellTiter-Glo, cherry-picked (AID 624134); format: functional, cell-based

T3 sequence (P08659 whole entry): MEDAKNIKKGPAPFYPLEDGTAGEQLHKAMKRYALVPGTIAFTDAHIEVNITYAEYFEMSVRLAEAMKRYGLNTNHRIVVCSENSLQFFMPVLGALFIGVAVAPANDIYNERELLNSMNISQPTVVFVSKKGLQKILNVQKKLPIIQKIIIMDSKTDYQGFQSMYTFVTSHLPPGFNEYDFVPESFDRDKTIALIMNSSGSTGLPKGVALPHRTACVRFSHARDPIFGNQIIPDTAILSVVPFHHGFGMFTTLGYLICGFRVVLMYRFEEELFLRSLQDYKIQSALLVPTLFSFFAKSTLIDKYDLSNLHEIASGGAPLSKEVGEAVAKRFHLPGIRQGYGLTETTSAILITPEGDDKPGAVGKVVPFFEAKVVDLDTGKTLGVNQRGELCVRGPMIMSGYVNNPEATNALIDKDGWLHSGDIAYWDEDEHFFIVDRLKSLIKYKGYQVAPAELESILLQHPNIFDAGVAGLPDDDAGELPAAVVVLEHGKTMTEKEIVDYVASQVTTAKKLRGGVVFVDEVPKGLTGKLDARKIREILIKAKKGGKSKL
Sequence of Voltage-dependent T-type calcium channel subunit alpha-1H (O95180 whole entry): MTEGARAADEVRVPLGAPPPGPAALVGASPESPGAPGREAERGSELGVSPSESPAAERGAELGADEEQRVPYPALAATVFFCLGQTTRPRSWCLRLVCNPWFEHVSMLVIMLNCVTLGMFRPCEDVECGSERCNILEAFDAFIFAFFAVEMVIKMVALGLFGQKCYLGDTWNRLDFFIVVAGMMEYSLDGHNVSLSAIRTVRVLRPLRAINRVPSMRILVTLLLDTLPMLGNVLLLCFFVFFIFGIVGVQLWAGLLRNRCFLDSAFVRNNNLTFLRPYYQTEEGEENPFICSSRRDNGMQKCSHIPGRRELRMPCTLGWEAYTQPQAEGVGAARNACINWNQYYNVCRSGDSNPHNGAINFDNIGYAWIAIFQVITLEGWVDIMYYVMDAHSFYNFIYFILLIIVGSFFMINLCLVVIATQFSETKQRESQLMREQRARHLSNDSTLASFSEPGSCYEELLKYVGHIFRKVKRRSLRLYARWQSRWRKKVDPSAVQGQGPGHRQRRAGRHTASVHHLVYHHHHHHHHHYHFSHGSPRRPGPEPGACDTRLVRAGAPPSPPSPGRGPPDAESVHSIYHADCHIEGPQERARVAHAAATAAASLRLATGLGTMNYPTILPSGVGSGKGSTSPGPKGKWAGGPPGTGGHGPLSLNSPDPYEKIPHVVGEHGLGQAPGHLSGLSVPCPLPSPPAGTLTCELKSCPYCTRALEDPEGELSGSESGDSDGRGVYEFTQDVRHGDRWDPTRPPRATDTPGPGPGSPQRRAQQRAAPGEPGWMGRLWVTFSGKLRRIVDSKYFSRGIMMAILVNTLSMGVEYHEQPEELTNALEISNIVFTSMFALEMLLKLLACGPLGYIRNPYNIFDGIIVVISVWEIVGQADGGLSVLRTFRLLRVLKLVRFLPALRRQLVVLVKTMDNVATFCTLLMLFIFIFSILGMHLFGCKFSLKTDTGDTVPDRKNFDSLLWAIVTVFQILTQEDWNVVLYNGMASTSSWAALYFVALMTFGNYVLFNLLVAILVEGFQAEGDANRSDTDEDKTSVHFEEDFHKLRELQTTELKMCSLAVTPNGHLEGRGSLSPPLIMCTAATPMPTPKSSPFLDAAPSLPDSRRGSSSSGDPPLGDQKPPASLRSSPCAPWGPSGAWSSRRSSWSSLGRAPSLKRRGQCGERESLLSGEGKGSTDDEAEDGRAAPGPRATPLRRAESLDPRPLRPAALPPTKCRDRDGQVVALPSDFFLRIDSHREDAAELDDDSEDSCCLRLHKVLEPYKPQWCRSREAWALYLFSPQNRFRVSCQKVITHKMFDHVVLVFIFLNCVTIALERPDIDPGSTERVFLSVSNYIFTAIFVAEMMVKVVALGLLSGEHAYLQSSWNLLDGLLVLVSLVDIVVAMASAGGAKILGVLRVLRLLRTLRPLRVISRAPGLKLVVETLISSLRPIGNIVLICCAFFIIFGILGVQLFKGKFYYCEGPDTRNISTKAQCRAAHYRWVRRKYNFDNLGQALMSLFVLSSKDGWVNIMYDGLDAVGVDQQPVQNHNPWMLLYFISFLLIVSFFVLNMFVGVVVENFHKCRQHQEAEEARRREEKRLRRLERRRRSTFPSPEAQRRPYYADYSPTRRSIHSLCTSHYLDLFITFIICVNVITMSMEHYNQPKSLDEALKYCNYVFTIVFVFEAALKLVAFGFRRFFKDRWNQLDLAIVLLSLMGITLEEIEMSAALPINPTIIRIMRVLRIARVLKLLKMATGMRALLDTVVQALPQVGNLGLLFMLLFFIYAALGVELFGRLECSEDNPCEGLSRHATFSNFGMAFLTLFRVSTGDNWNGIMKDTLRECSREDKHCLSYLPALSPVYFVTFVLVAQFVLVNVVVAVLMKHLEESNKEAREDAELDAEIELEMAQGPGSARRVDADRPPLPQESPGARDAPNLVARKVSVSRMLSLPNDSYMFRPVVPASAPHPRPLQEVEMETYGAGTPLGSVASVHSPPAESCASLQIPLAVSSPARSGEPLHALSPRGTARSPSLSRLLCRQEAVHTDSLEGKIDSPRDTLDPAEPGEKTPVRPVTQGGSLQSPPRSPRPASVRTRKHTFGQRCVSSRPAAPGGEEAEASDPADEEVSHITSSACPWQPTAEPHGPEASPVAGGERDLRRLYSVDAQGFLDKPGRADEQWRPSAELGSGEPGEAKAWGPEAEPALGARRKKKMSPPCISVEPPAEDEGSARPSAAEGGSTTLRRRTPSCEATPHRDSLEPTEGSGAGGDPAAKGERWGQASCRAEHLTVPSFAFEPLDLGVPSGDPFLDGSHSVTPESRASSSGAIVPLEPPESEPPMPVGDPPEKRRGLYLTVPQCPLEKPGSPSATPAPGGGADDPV
Sequence of NS3 (A3EZJ3 whole entry): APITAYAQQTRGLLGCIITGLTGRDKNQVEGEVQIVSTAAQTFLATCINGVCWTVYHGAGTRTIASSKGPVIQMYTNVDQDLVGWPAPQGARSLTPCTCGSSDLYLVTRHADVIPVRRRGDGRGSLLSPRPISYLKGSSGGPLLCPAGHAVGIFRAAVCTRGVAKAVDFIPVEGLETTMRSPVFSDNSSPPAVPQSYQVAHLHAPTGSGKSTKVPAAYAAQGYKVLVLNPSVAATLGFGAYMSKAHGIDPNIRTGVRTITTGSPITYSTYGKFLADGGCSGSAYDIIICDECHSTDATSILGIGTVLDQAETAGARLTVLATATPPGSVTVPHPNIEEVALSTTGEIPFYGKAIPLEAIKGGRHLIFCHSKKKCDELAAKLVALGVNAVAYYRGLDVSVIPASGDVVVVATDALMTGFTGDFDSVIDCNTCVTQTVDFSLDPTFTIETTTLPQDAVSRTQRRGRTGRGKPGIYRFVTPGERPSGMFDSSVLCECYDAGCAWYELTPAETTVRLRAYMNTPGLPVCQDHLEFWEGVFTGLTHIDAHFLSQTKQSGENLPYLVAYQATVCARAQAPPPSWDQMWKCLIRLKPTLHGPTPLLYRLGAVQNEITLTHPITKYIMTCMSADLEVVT

Cc1ccc(/C=C/C(=O)c2ccccc(=O)c2O)c(C)c1
EC50 [1]: > 160 µM (inactive)
EC50 [2]: 5.22 µM (active)
EC50 (Streptokinase A): > 150 µM (not active)
EC50 [3]: 1.46 µM (active)
IC50 (NS3): 2.9 µM (active)
EC50 (Streptococcus): 7.6 µM (active)
AC50 [4]: 2.05 µM (active)

Cc1ccc(NC(=O)C(Cc2ccccc2)N2C(=O)C3C4CCC(C4)C3C2=O)cc1Cl (centres undefined)
EC50 [5]: 0.871 µM (active)
EC50 [6]: > 60 µM (not active)
EC50 [7]: 5.73 µM (active)

CCc1ccc(-c2cc(C(=O)Nc3ccc(S(=O)(=O)NC(C)=O)cc3)c3ccccc3n2)cc1
IC50 (Leucine aminopeptidase): 7.8 µM (active)
IC50 [8]: > 100 µM (active)
AC50 (Escherichia coli): 38.6 µM (active)

Cc1ccc(-c2noc(CSc3nnc(Cc4ccccc4)n3-c3ccc(Cl)cc3)n2)cc1
EC50 [7]: 4.98 µM (active)

O=C1OC(c2ccco2)=N/C1=C\c1ccc(-c2cccc(C(F)(F)F)c2)o1
IC50 (NS3): 22.1 µM (not active)

Cc1nc2cc(-c3cccc(F)c3)nn2c(C)c1CCC(=O)NC(C)CCc1ccco1 (centres undefined)
EC50 [9]: 2.36 µM (active)
EC50 [10]: 0.27 µM (active)
EC50 [11]: 5.87 µM (active)
EC50 (HT-1080): > 50 µM (not active)
IC50 [12]: > 80 µM (inactive)

Cc1cccn2c(=O)c3cc(C(=O)NC4CCCCC4)c(=N)n(CCN4CCOCC4)c3nc12
IC50 [12]: > 80 µM (inactive)

COc1ccc(-c2csc(Nc3ncccc3C)n2)cc1OC
CC50 [13]: > 40 µM (active)

Cc1ccc(-c2nc(-c3ccccn3)no2)cc1
EC50 (BJ [14]): 7.04 µM (active)
EC50 [10]: 0.81 µM (active)
EC50 (BJ [15]): 5.39 µM (active)
EC50 [16]: 0.593 µM (active)
EC50 [17]: 2.52 µM (active)
EC50 (HT-1080): > 50 µM (not active)
EC50 (BJ [18]): 17.4 µM (active)
EC50 [19]: 5.41 µM (active)
IC50 [20]: > 80 µM (inactive)
AC50 [21]: 1.96 µM (active)
AC50 [22]: 8.99 µM (active)

O=C(Nc1nc2nc(-c3ccccc3)cc(-c3ccccc3)n2n1)c1ccco1
IC50 [12]: > 80 µM (inactive)
